From US6423689B1, “Peptidyl calcium channel blockers” (Warner-Lambert Company, priority 1997, dated 2002) come the findings set out here.

Broadly, the IC50 is the midpoint of a concentration-inhibition curve. What is called inhibition is the change of the read-out against control, counted positive when it falls.

In test [1] the target is T1, N-type Ca2+ channels in IMR-32 cells (Homo sapiens, UniProt Q00975).
T1 construct: host or cells: IMR-32 cells, differentiated with dibutyryl cAMP and bromodeoxyuridine
T1 sequence (Q00975 whole entry): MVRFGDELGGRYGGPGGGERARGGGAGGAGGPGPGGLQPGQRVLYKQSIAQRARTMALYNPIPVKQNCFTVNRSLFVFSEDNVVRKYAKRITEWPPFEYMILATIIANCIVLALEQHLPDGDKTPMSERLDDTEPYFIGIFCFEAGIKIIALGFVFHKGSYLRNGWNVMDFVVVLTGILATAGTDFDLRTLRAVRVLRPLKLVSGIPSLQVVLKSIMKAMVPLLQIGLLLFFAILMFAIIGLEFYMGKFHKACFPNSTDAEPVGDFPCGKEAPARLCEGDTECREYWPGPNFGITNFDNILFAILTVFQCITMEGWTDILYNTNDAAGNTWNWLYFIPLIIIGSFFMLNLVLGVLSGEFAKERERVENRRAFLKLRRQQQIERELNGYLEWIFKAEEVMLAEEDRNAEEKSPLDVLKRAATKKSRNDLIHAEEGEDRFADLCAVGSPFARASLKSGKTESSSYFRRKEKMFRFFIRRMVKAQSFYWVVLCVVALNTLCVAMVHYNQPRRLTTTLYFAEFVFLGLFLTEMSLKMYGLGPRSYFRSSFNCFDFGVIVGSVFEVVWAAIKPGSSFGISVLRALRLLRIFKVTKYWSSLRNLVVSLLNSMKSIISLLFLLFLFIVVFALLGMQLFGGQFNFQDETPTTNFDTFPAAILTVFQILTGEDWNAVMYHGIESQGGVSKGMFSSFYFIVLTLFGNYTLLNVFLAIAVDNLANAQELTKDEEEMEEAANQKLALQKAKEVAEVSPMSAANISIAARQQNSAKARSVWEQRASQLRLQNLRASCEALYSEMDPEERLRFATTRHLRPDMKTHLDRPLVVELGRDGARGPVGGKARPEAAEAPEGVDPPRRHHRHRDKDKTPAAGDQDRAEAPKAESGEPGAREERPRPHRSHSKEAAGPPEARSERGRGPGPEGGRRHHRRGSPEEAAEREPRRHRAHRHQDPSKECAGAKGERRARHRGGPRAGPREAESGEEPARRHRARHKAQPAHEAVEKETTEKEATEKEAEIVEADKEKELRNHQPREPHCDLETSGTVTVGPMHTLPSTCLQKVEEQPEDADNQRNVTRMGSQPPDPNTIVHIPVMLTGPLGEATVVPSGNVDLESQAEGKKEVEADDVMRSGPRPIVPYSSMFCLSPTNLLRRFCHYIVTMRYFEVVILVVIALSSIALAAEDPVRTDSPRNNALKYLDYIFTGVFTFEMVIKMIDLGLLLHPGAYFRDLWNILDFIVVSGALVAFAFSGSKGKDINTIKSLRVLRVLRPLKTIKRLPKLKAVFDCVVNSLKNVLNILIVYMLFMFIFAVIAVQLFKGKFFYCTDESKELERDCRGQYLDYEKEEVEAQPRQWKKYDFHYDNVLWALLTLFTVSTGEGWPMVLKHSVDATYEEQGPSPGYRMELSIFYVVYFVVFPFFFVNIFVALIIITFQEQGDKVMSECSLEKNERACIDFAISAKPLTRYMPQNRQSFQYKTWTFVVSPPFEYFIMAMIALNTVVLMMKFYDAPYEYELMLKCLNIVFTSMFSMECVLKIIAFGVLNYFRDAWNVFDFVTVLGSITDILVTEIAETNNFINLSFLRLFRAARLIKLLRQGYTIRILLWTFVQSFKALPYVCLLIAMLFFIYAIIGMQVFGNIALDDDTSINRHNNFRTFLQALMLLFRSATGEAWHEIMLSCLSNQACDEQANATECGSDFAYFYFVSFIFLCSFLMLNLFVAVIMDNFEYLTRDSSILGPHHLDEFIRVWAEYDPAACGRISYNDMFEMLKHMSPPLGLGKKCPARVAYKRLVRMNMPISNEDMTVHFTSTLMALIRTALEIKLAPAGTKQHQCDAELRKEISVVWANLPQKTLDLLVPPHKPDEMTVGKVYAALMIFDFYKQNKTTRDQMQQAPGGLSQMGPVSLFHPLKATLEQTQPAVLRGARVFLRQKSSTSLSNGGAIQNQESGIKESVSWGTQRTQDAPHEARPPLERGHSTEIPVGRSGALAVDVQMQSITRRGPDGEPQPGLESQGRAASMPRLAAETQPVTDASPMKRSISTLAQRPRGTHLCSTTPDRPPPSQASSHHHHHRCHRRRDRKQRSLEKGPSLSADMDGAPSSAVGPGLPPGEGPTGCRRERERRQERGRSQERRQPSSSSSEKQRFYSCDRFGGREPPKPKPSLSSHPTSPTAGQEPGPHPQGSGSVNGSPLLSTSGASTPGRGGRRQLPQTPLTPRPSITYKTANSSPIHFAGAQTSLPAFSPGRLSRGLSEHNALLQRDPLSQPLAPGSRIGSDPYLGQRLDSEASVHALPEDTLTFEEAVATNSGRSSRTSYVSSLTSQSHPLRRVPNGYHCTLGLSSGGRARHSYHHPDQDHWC
T1 sequence (P54289 25-956 partner limits assumed): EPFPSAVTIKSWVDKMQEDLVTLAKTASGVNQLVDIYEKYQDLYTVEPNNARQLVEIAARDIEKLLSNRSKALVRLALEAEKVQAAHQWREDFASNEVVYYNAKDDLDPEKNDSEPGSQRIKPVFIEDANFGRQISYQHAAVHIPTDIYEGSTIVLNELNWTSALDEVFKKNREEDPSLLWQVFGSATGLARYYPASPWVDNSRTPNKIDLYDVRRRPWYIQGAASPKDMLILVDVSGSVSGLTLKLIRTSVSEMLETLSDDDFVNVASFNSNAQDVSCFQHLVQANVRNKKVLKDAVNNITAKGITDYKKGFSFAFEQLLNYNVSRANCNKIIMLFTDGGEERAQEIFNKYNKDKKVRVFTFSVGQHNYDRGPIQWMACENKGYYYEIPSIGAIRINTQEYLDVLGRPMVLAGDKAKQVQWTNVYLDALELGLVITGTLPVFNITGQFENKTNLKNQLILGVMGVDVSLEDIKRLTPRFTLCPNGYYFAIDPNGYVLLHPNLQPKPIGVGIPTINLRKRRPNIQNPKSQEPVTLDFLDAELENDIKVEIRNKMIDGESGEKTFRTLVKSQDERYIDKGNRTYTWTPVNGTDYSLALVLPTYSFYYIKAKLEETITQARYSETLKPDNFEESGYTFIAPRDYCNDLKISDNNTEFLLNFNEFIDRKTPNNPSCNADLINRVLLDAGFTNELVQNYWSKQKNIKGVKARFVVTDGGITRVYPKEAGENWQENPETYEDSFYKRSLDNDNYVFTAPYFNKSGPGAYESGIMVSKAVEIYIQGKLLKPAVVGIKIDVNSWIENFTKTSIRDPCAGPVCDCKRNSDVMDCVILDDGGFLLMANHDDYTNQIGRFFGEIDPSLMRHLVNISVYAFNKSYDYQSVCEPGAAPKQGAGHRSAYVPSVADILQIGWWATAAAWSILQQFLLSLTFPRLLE
T1 sequence (P54289 957-1103 partner limits assumed): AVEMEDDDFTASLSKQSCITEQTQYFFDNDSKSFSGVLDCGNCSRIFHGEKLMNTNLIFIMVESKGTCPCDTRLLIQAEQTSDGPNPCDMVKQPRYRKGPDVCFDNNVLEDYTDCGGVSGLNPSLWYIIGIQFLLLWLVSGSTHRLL
T1 sequence (P54284 whole entry partner): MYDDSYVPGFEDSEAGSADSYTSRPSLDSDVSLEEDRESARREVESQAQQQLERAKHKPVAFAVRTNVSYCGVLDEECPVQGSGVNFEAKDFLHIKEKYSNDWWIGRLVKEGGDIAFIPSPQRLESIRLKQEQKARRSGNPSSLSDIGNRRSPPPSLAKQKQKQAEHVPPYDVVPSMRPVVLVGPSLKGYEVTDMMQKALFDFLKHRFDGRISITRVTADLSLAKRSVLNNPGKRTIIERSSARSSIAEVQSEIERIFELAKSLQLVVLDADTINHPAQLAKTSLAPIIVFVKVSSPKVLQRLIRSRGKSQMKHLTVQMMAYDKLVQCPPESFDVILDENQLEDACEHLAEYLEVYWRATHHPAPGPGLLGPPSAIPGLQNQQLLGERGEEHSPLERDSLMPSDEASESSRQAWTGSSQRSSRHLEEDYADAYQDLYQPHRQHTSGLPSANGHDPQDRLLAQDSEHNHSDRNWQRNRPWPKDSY
The experiment in a line: Inhibition of N-type calcium flux in IMR-32 cells (Indo-1 fluorescence, nitrendipine present). It is filed as cell-based. The note with it: for IC50: IMR-32 cells, 5 μM nitrendipine, K+ depolarization; for inhibition at 1 µM / inhibition at 10 µM: IMR-32. Put shortly:
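Differentiated IMR-32 cells (7–13 days) were loaded with 5 μM Indo-1 AM, preincubated with compound for 10 min at 30° C, and depolarized with KCl/CaCl2 stimulation solution, with 5 μM nitrendipine blocking L-channels. Peak-minus-basal 400/490 nm emission ratio was plotted against drug concentration, and IC50 came from four-parameter logistic fits.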

The target in test [2] is T2, N-type Ca2+ channels in superior cervical ganglion (SCG) neurons (Rattus norvegicus, UniProt Q02294).
T2 construct: from tissue
The experiment in a line: Whole-cell voltage clamp, N-type Ca2+ current in SCG neurons. In kind it is cell-based. How it is done: (§1) Electrophysiological techniques were used to measure the effects of experimental compounds on voltage-gated Ca^2+, Na^+ and K^+ channels. […] Sodium and potassium channel currents were measured from acutely dissociated SCG neurons.
(§2) Dissociation of the neurons from the ganglia was accomplished using a 30 to 45 minute treatment in 0.25% trypsin, similar to methods outlined in Higgins, et al. [see Higgins D., et al. “Tissue culture of mammalian autonomic neurons.” In Banker G. and Goslin K. (Eds), Culturing Nerve Cells, Cambridge, Mass., MIT Press (1991)].
(§3) Ca^2+, Na^+ and K^+ channel currents in SCG neurons were measured using conventional single electrode whole-cell voltage-clamp techniques, outlined in Hamill, et al., (see Hamill O.P., et al. “Improved patch-clamp techniques for high resolution current recordings from cells and cell-free membrane patches”. Pflugers Arch. 1981;391:85-100) For Ca^2+ channel experiments, the external bathing solution contained tetraethylammonium chloride (100 mM), choline chloride (52 mM), NaCl (15 mM), HEPES (10 mM), glucose (5.6 mM), CaCl2 (2 mM), and MgCl2 (0.8 mM) pH 7.35 with KOH; with the internal pipette solution containing cesium methane sulfonate (140 mM), EGTA (10 mM), and HEPES (10 mM), supplemented with 5 mM Mg^2+ -ATP on the day of the experiment, pH 7.4 with CsOH. For Na^+ and K^+ channel experiments, the external bathing solution contained NaCl (150 mM), KCl (5 mM), MgCl2 (1.1 mM), CaCl2 (2.6 mM), Na-HEPES (10 mM), and glucose (10 mM), pH 7.4; with the internal pipette solution containing KCl (80 mM), K-gluconate (50 mM), HEPES (10 mM), and EGTA (10 mM), pH 7.4 with KOH. Experimental compounds were diluted into the external solution and applied to the soma of cells by local perfusion from large diameter (20-50 μm) glass micropipettes or from a U-tube applicator.
After obtaining a whole-cell recording, Ca^2+ channels were elicited by stepping to test potentials between −40 and +20 mV for 120 msec from the holding potential of −90 mV to determine if the amplitude of the current and clamp control were adequate for evaluation of drug effects. Ca^2+ channel currents were evoked by stepping from a holding potentials between −65 mV and −−55 mV to a test potential of +20 mV for 150 msec every 40 seconds. The amplitude of the Ca^2+ channel currents were compared before and during drug application and drug effects expressed as percent inhibition of the amplitude of control currents.

For test [3], the system named is K+ channels in superior cervical ganglion (SCG) neurons. Nature of the test: Whole-cell voltage clamp, K+ current in SCG neurons. In kind it is cell-based, rat. On the procedure: as §1, §2, §3
(§4) For Na^+ and K^+ channel currents, following the determination of the I/V relationship for each cell in control solution, currents were evoked from a holding potential between −65 and −55 mV by stepping every 10 sec to a test potential of either 0 mV for Na^+ or +50 mV for K^+ current for a duration of 35 msec. Peak inward current was measured for Na^+ and sustained current for K^+ channel currents. […] Test compounds were applied until steady-state block was achieved. Data were expressed as percent inhibition of control amplitudes for Na^+ and K^+ channel currents.

In test [4] the test system is Na+ channels in superior cervical ganglion (SCG) neurons. The experiment in a line: Whole-cell voltage clamp, Na+ current in SCG neurons. In kind it is cell-based, rat. On the procedure: as §1, §2, §3, §4

The structures appear in SMILES notation.

For `C[C@H](NC(=O)N1CCCCCC1)C(=O)N[C@@H](Cc1ccc(OCc2ccccc2)cc1)C(=O)OC(C)(C)C` (relative stereo) [Example 7, [S-(R*,R*)]-2-{2-[(Azepane-1-carbonyl)-amino]-propionylamino}-3-(4-benzyloxy-phenyl)-propionic acid tert-butyl ester], in test [1], the “Inhibition of Calcium Flux in IMR-32 Cells % Inhibition at 1 μM” value worked out at 44%, the “Inhibition of Calcium Flux in IMR-32 Cells % Inhibition at 10 μM” value is 96% and the concentration for half-maximal inhibition (IC50) was determined as 1.5 µM. Moreover, in test [2], the “Inhibition of N-type Ca2+ Current, % Inhibition at 10 μM” value was 81%. Moreover, in test [2] (read-out: Inhibition of N-type Ca2+ Current IC50), the IC50 worked out at 2.3 µM. The “Inhibition of K+ Current, % Inhibition at 10 μM” value in test [3] came to 70%. The “Inhibition of Na+ Current, % Inhibition at 10 μM” value in test [4] came to 52%.
For the compound `CC(C)C[C@H](NC(=O)N1CCN(C)CC1)C(=O)N[C@@H](Cc1ccc(OCc2ccccc2)cc1)C(=O)OC(C)(C)C` (relative stereo) [Example 9, [S-(R*,R*)]-3-(4-Benzyloxy-phenyl)-2-{4-methyl-2-[(4-methyl-piperazine-1-carbonyl)-amino]-pentanoylamino}-propionic acid tert-butyl ester], in test [1], the “Inhibition of Calcium Flux in IMR-32 Cells % Inhibition at 1 μM” value was 28%. Besides, the “Inhibition of N-type Ca2+ Current, % Inhibition at 10 μM” value in test [2] came out at 81%. For the same compound, the “Inhibition of K+ Current, % Inhibition at 10 μM” value in test [3] is recorded as 61%. Further, in test [4], the “Inhibition of Na+ Current, % Inhibition at 10 μM” value is on record as 44%.
Turning to `CCCCNC(=S)N[C@@H](CC(C)C)C(=O)N[C@@H](Cc1ccc(OCc2ccccc2)cc1)C(=O)OC(C)(C)C` (relative stereo) [Example 49, [S-(R*,R*)]-3-(4-Benzyloxy-phenyl)-2-[2-(3-butyl-thioureido)-4-methyl-pentanoylamino]-propionic acid tert-butyl ester], in test [1], the “Inhibition of Calcium Flux in IMR-32 Cells % Inhibition at 1 μM” value is given as 77%, the “Inhibition of Calcium Flux in IMR-32 Cells % Inhibition at 10 μM” value stood at 99% and the IC50 was 0.27 µM. For the same compound, in test [2], the “Inhibition of N-type Ca2+ Current, % Inhibition at 10 μM” value is recorded as 45%. The “Inhibition of K+ Current, % Inhibition at 10 μM” value in test [3] is reported as −3%. Besides, in test [4], the “Inhibition of Na+ Current, % Inhibition at 10 μM” value was determined as 6%.
Consider `CC(C)(C)NC(=O)[C@H](Cc1ccc(OCc2ccccc2)cc1)NC(=O)[C@@H]1CC2CCCCC2N1C(=O)N1CCCCCC1` (relative stereo) [Example 161, [S-(R*,R*)]-1-(Azepane-1-carbonyl)-octahydro-indole-2-carboxylic acid [2-(4-benzyloxy-phenyl)-1-tert-butylcarbamoyl-ethyl]-amide], for which the IC50 was found to be 2.5 µM in test [1], 5.45 µM in test [3] (read-out: Inhibition of K+ Current IC50) and 14 µM in test [4] (read-out: Inhibition of Na+ Current IC50). Besides, the “Inhibition of N-type Ca2+ Current, % Inhibition at 10 μM” value in test [2] came out at 61%. Moreover, the “Inhibition of K+ Current, % Inhibition at 10 μM” value in test [3] is on record as 68%. Besides, in test [4], the “Inhibition of Na+ Current, % Inhibition at 10 μM” value worked out at 42%.
On to `CC(C)C[C@H](NC(=O)N1CCCCCC1)C(=O)N[C@@H](Cc1ccc(OCc2ccccc2)cc1)C(=O)N1CCN(Cc2ccccc2)CC1` (relative stereo) [Example 180, [S-(R*,R*)]-Azepane-1-carboxylic acid {1-[1-(4-benzyloxy-benzyl)-2-(4-benzyl-piperazin-1-yl)-2-oxo-ethylcarbamoyl]-3-methyl-butyl}-amide], for which, in test [1], the “Inhibition of Calcium Flux in IMR-32 Cells % Inhibition at 1 μM” value was 55% and the IC50 amounted to 0.82 µM. For the same compound, the “Inhibition of N-type Ca2+ Current, % Inhibition at 10 μM” value in test [2] came to 81%. Besides, the “Inhibition of K+ Current, % Inhibition at 10 μM” value in test [3] is 60%. In addition, the “Inhibition of Na+ Current, % Inhibition at 10 μM” value in test [4] was found to be 20%.
Turning to `CC(C)C[C@H](NC(=O)N1CCCCCC1)C(=O)N[C@H](Cc1ccc(OCc2ccccc2)cc1)C(=O)OC(C)(C)C` [Example 2, 2(R)-{2(S)-[(Azepane-1-carbonyl)-amino]-4-methyl-pentanoylamino}-3-(4-benzyloxy-phenyl)-propionic acid tert-butyl ester], in test [1], the inhibition at 1 µM amounted to 38%, the inhibition at 10 µM was determined as 90% and the IC50 was found to be 1.7 µM. In test [2], the inhibition at 10 µM stood at 32%. Moreover, in test [3], the “Inhibition of K+ Current, % Inhibition at 10 μM” value is reported as 41%. Also, the “Inhibition of Na+ Current, % Inhibition at 10 μM” value in test [4] was found to be 35%.
As for `CC(C)C[C@@H](NC(=O)N1CCCCCC1)C(=O)N[C@@H](Cc1ccc(OCc2ccccc2)cc1)C(=O)OC(C)(C)C` [Example 3, 2(S)-{2(R)-[(Azepane-1-carbonyl)-amino]-4-methyl-pentanoylamino}-3-(4-benzyloxy-phenyl)-propionic acid tert-butyl ester], in test [1], the inhibition at 1 µM turned out to be 53%, the inhibition at 10 µM came out at 90% and the half-inhibitory concentration (IC50) was determined as 0.99 µM. In addition, the inhibition at 10 µM in test [2] was found to be 69%. For the same compound, in test [3], the “Inhibition of K+ Current, % Inhibition at 10 μM” value worked out at 39%. In addition, in test [4], the “Inhibition of Na+ Current, % Inhibition at 10 μM” value was found to be 12%.
`CC(C)C[C@@H](NC(=O)N1CCCCCC1)C(=O)N[C@H](Cc1ccc(OCc2ccccc2)cc1)C(=O)OC(C)(C)C` [Example 4, [R-(R*,R*)]-2-{2-(Azepane-1-carbonyl)-amino]-4-methyl-pentanoylamino}-3-(4-benzyloxy-phenyl)-propionic acid tert-butyl ester]: in test [1], the inhibition at 1 µM stood at 51%, the inhibition at 10 µM is 90% and the IC50 turned out to be 0.9 µM. In addition, the inhibition at 10 µM in test [2] is 51%. The “Inhibition of K+ Current, % Inhibition at 10 μM” value in test [3] is recorded as 38%. The “Inhibition of Na+ Current, % Inhibition at 10 μM” value in test [4] is given as 13%.
Turning to `CC(C)CC(NC(=O)N1CCCCCC1)C(=O)NC(C)(Cc1ccc(OCc2ccccc2)cc1)C(=O)OC(C)(C)C` (stereo not drawn) [Example 11A, [S-(R*,R*)]-2-{2-[(Azepane-1-carbonyl)-amino]-4-methyl-pentanoylamino}-3-(4-benzyloxy-phenyl)-2-methyl-propionic acid tert-butyl ester], in test [1], the inhibition at 1 µM stood at 61%, the inhibition at 10 µM was found to be 88% and the IC50 came to 0.53 µM. The same compound registered an inhibition at 10 µM in test [2] of 47%. Further, in test [3], the “Inhibition of K+ Current, % Inhibition at 10 μM” value is given as 47%. Besides, in test [4], the “Inhibition of Na+ Current, % Inhibition at 10 μM” value is 11%.
Turning to `CC(C)C[C@H](NC(=O)N1CCCCCC1)C(=O)N[C@@H](Cc1ccc(OCc2cccc(NC(=O)OC(C)(C)C)c2)cc1)C(=O)OC(C)(C)C` [Example 28, [S-(R*,R*)]-2-{2-[(Azepane-1-carbonyl)-amino]-4-methyl-pentanoylamino}-3-[4-(3-tert-butoxycarbonylamino-benzyloxy)-phenyl]-propionic acid tert-butyl ester], in test [1], the inhibition at 1 µM is 42%, the inhibition at 10 µM is 65% and the IC50 worked out at 1.8 µM. Besides, the inhibition at 10 µM in test [2] was determined as 40%. For the same compound, in test [3], the “Inhibition of K+ Current, % Inhibition at 10 μM” value stood at 11%. Moreover, the “Inhibition of Na+ Current, % Inhibition at 10 μM” value in test [4] was 5%.
As for `CC(C)C[C@H](NC(=O)N1CCCCCC1)C(=O)N[C@@H](Cc1ccc(OCc2ccccc2)cc1)C(=O)NCCc1ccco1` [Example 174, [S-(R*,R*)]-Azepane-1-carboxylic acid {1-[2-(4-benzyloxy-phenyl)-1-(2-furan-2-ylethylcarbamoyl)-ethylcarbamoyl]-3-methyl-butyl}-amide], in test [1], the half-maximal inhibitory concentration (IC50) is 1.4 µM. Besides, in test [3], the “Inhibition of K+ Current, % Inhibition at 10 μM” value amounted to 32%. Moreover, in test [4], the “Inhibition of Na+ Current, % Inhibition at 10 μM” value was determined as 14%.
